Measurements reported in PubChem BioAssay AID720563 (Broad Institute, 2013).
Values joined by “and” are separate entries in the source; they are usually repeats but may differ in a detail not shown here. Equal entries are not always repeated. Active and inactive are the calls of the source.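 How the source made its calls: active means compounds whose fitted AC50 lies at or below twice their top valid test dose; inconclusive means flat curve between -70 and -30 percent, or unreliable curve fit; inactive means the rest.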

Target: Transforming acidic coiled-coil-containing protein 3 (Homo sapiens) (UniProt Q9Y6A5)
Test: ARNT/TACC3 binding disruptors, dose response, biochemical, AlphaScreen, dry powder (AID 720563)
Settings: AlphaScreen His-ARNT PAS-B/GST-TACC3 binding, luminescence

| SMILES | AC50 |
| --- | --- |
| CC(C)C(=O)NC(c1ccco1)c1ccc2cccnc2c1O (stereo unspecified) | 452 nM |
| CC1CCN(S(=O)(=O)c2ccc(C(=O)Nc3nnc(-c4ccco4)o3)cc2)CC1 | 34100 nM |
| O=C(Nc1nnc(C2=COCCO2)o1)c1ccc(S(=O)(=O)N2CCCCC2)cc1 | 19100 nM |
| CCn1nc(-c2cccnc2)nc2c(=O)n(C)c(=O)nc1-2 | 78.4 nM |
| CCCCC(=O)NC(c1ccco1)c1ccc2cccnc2c1O (stereo unspecified) | 1390 nM |
| COc1ccc(-c2nnc(NC(=O)c3ccc(S(=O)(=O)N4CCC(C)CC4)cc3)o2)cc1 | 17800 nM |
| Cc1ccc(C(=O)Nc2nc(-c3ccccn3)cs2)o1 | 806 nM |
| Cc1c(C(=O)N(C)C)sc2nc(-c3ccccn3)[nH]c(=O)c12 | 1750 nM |
| O=C(CSc1ccc(-c2ccccn2)nn1)N1CCCC1 | 1680 nM |
| O=C(Nc1nc(-c2ccccn2)cs1)c1ccco1 | 820 nM |
| O=C(CSc1ccc(-c2ccccn2)nn1)NC1CCCCC1 | 1630 nM |
| O=C(Nc1nc(-c2ccncc2)cs1)c1cccc(S(=O)(=O)N2CCOCC2)c1 | 65900 nM |
| CCc1cc2c(=O)[nH]c(-c3ccccn3)nc2s1 | 1240 nM |
| CC(C)Cc1nnc(NC(=O)c2cccc(S(=O)(=O)N3CCOCC3)c2)s1 | > 136000 nM (inactive) |
| CC(C)C(=O)NC(c1ccco1)c1cc(Cl)c2cccnc2c1O (stereo unspecified) | 5100 nM |
| Cc1ccc(C(=O)Nc2nc(-c3ccccc3)cs2)o1 | > 136000 nM (inactive) |
| CC1CCCN(S(=O)(=O)c2ccc(C(=O)Nc3nnc(C4=COCCO4)o3)cc2)C1 (stereo unspecified) | 11200 nM |
| CC1CCN(S(=O)(=O)c2ccc(C(=O)Nc3nnc(-c4ccccn4)o3)cc2)CC1 | 39600 nM |
| COC(=O)Cc1cc(=O)n(-c2nc3ccccc3[nH]2)[nH]1 | 1910 nM |
| CC1CC(C)CN(S(=O)(=O)c2ccc(C(=O)Nc3nnc(C4=COCCO4)o3)cc2)C1 (stereo unspecified) | 35600 nM |

| SMILES | AC50 |
| --- | --- |
| COC(=O)c1ccc(NC(=O)CSc2ccc(-c3ccccn3)nn2)cc1 | 630 nM |
| O=C(Nc1nc(-c2ccccn2)cs1)c1ccc(S(=O)(=O)N2CCOCC2)cc1 | 342 nM |
| O=C(Nc1nnc(-c2ccc(F)cc2)o1)c1ccc(S(=O)(=O)N2CCCCC2)cc1 | 23000 nM |
| Nc1nc(-c2ccccn2)nc(N)c1Cc1ccc(Cl)cc1Cl | 649 nM |
| CC1CCN(S(=O)(=O)c2ccc(C(=O)Nc3nnc(C4CC4)o3)cc2)CC1 | 16700 nM |
| CC(C)CC(=O)NC(c1cccs1)c1ccc2cccnc2c1O (stereo unspecified) | 797 nM |
| O=C(CSc1n[nH]c(-c2ccccn2)n1)Nc1ccc(Cl)cc1 | 884 nM |
| CC1CCN(S(=O)(=O)c2ccc(C(=O)Nc3nnc(-c4ccno4)o3)cc2)CC1 | 11400 nM |
| Cc1cccc(NC(=O)CSc2ccc(-c3ccccn3)nn2)c1C | 819 nM |
| O=C(CSc1ccc(-c2ccccn2)nn1)Nc1ccccc1 | 869 nM |
| Cc1nnc(NC(=O)c2ccc(S(=O)(=O)N3CCCCC3)cc2)o1 | 14300 nM |
| c1ccc(-c2nc(-c3ccncc3)n[nH]2)nc1 | 368 nM and 190 nM |
| Cc1ccc(C(=O)Nc2nc(-c3ccccn3)cs2)cc1S(=O)(=O)N1CCOCC1 | 1110 nM |
| CC1CCN(S(=O)(=O)c2ccc(C(=O)Nc3nnc(C4=COCCO4)o3)cc2)CC1 | 17600 nM |
| CC1CCN(S(=O)(=O)c2ccc(C(=O)Nc3nnc(-c4cccs4)o3)cc2)CC1 | 49800 nM |
| O=C(Cc1ccccc1)NC(c1ccco1)c1ccc2cccnc2c1O (stereo unspecified) | 1490 nM |
| CC1CCN(S(=O)(=O)c2ccc(C(=O)Nc3nnc(-c4ccccc4)o3)cc2)CC1 | 20400 nM |
| O=C(CSc1ccc(-c2ccccn2)nn1)Nc1nccs1 | 262 nM |
| CSc1ccc(-c2nnc(NC(=O)c3ccc(S(=O)(=O)N4CCC(C)CC4)cc3)o2)cc1 | 5810 nM |

Same assay, conditions: AlphaScreen His-ARNT PAS-B/GST-TACC3 binding, luminescence; at 68 µM (top of the series)

| SMILES | activity change, negative = inhibition |
| --- | --- |
| Cc1ccc(S(=O)(=O)CCc2nnc(NC(=O)c3ccccc3)s2)cc1 | inactive |
| FC(F)(F)c1cc(-c2nn[nH]n2)cc(C(F)(F)F)c1 | inactive |
